Assay results as given in PubChem BioAssay AID1963837 (Molecular Pharmacology Branch, DTP, NCI, 2024).
Where “and” joins values, the source holds several entries; their conditions need not be identical. Identical values can stand only once.

System: 843126-344-R-J1-PDC complex spheroid viability
Experiment: Anticancer human tumor 843126-344-R-J1-PDC patient-derived melanoma cell line growth inhibition [POLQ]
Conditions: for viability, T/C: stronger effect = lower value
Experimental: Multicellular complex tumor spheroid response to Polymerase (POL) inhibitors (novobiocin, ART-558, RP6685) in combination with a variety of drugs and investigational agents in selected tumor cell lines
The POL inhibitors (novobiocin, ART-558, and RP6685) were evaluated both individually and in combination with standard of care and investigational anticancer small molecules within a complex spheroid model of solid tumors. . Complex spheroids include a stromal component modeled by human endothelial cells (HUVEC) and fibroblasts modeled by human mesenchymal stem cells (MSCs). The concentration ranges selected for each drug and investigational agent were based upon clinically achievable concentrations if the clinical Cmax of the agent was known.
Compounds. The drugs and investigational agents: novobiocin (NSC847541), ART-558 (NSC835418), RP-6685 (NSC848927), peposertib (NSC802822), ceralasertib (NSC780249), elimusertib (NSC800525), camonsertib (NSC841442), AZD-1390 (NSC803789), olaparib (NSC753686), talazoparib (NSC767125), rucaparib (NSC756644), sotorasib (NSC818433), MRTX-1133 (NSC836407), SN-38 (NSC673596), topotecan (NSC609699), epotoside (NSC141540), doxorubicin (NSC123127), gemcitabine (NSC613327), 5-fluorouracil (NSC19893), paclitaxel (NSC125973), vemurafenib (NSC761431), MSA-2 (NSC828583), SN-011 (NSC837082), adavosertib (NSC754352), prexasertib (NSC758257), carboplatin (NSC241240) and oxaliplatin (NSC266046), were obtained from the National Cancer Institute (NCI) Developmental Therapeutics Program Chemical Repository (21). The FDA-approved anticancer drug set is available from the Developmental Therapeutics Program at https://dtp.cancer.gov/organization/dscb/obtaining/. […] The stock solutions were prepared in dimethyl sulfoxide (DMSO, Sigma-Aldrich, St. Louis, MO, cat. D2650), except for the platinum compounds which were prepared in saline (Quality Biological, Gaithersburg, MD, cat. 114-055-101), at 800-fold the tested concentration and stored at -70 degrees C prior to their use. All drugs and investigational agents were tested over a range starting from a high concentration at or near the clinical Cmax and decreasing in half-log increments. If the clinical Cmax for an agent had not been determined, the highest concentration tested was 10 microM, except for SN-38, which was tested at a high concentration of 1 microM.
Cell Culture. All cells were maintained in an incubator at 37 degrees C and 5% CO2 with 95% humidity. The PDC lines were cultured according to standard operating procedures established by the NCI PDMR (https://pdmr.cancer.gov). Table 3 of the manuscript, lists the cell lines along with the number of the three cell types plated to form the mct-spheroids and media for tumor cell growth. After thawing, all PDC lines, except 997537-175-T-J1-PDC and 415267-285-R-J2-PDC, were cultured in Matrigel-coated flasks prepared with a working solution of 1X Ham's F-12 nutrient mix, without supplementation (Thermo Fisher Scientific, cat. 11765054), 100 U/mL penicillin-streptomycin (Thermo Fisher Scientific, cat. 15140122), and 2.5% Matrigel (Corning Inc., Corning, NY, cat. 354248) for the first three passages. The two PDC lines 997537-175-T-J1-PDC and 415267-285-R-J2-PDC were cultured on uncoated flasks. The 857933-349-R-J2-PDC line was cultured in 6C/Colon 1B media containing advanced DMEM/F-12 (Thermo Fisher Scientific, cat. 12634028), 10 mM HEPES (Thermo Fisher Scientific, cat. 15630080), 1X GlutaMAX supplement (Thermo Fisher Scientific, cat. 35050061), 0.1 mg/mL primocin (InvivoGen, San Diego, CA, cat. ant-pm-2), 10% defined fetal bovine serum, heat inactivated (HyClone Laboratories Inc., Logan, UT, cat. SH30070.03HI), 50% L-WRN conditioned media (ATCC, cat. CRL-3276), 1.25 mM N-Acetyl-L-cysteine (Sigma-Aldrich, cat. A9165), 10 mM nicotinamide (Sigma-Aldrich, cat. N0636), 1X B-27 supplement (Thermo Fisher Scientific, cat. 17504044), 1X N-2 supplement (Thermo Fisher Scientific, cat. […]
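Throughout, for viability, T/C: spheroids exposed to drugs for seven days before readout.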

In the case of COc1cccc(OCCCN)c1-c1cc(Nc2cnc(C#N)cn2)n[nH]1, the viability, T/C (compound 0.00316 µM) is reported as 97.4% and 92.9% and 79.1%, the viability, T/C (compound 0.01 µM) is reported as 79.3% and 86.4% and 75.8% and the viability, T/C (compound 0.0316 µM) is reported as 59% and 60.4% and 62.1%. For the same compound, the viability, T/C (compound 0.1 µM) was 49.5% and 47.9% and 49.9%, the viability, T/C (compound 0.316 µM) was 47.6% and 47.8% and 44.3% and the viability, T/C (compound 1 µM) was 35.3% and 32.9% and 35.2%. For the same compound, the IC50 (curve of compound) was 109 nM and 86.4 nM and 114 nM.

CCc1c2c(nc3ccc(O)cc13)-c1cc3c(c(=O)n1C2)COC(=O)[C@]3(O)CC was tested, and the viability, T/C (compound 0.00316 µM) was 62.8% and 69.6% and 70%, the viability, T/C (compound 0.01 µM) was 52.5% and 56.2% and 54.6% and the viability, T/C (compound 0.0316 µM) was 61.5% and 68% and 63%. The viability, T/C (compound 0.1 µM) was 71.1% and 62.4% and 61.4%, the viability, T/C (compound 0.316 µM) was 57% and 64% and 62.5% and the viability, T/C (compound 1 µM) was 53.9% and 45.5% and 50.1%. It also gave an IC50 (curve of compound) greater than 1000 nM.

With CCc1cc2c(N3CCc4c(cc(Cn5ccnc5)cc4-c4cn(C)nc4C(F)(F)F)C3=O)cc(C)nc2c(OC)n1 the viability, T/C (compound 0.0316 µM) was 103% and 106% and 77.7%, the viability, T/C (compound 0.1 µM) was 81.1% and 72.2% and 85.4% and the viability, T/C (compound 0.316 µM) was 76.4% and 87.8% and 98.1%. The viability, T/C (compound 1 µM) was 64.2% and 76.7% and 85.2%, the viability, T/C (compound 3.16 µM) was 71.5% and 72.6% and 64.6% and the viability, T/C (compound 10 µM) was 54.2% and 60.3%. The IC50 (curve of compound) was greater than 10000 nM.

With O=c1[nH]cc(F)c(=O)[nH]1 the viability, T/C (compound 0.0316 µM) was 119% and 102% and 97%, the viability, T/C (compound 0.1 µM) was 107% and 84.6% and 86.3% and the viability, T/C (compound 0.316 µM) was 104% and 89.5% and 75.2%. For the same compound, the viability, T/C (compound 1 µM) was 102% and 96.6% and 104%, the viability, T/C (compound 3.16 µM) was 106% and 98.3% and 96.6% and the viability, T/C (compound 10 µM) was 79.5% and 96.8% and 76.3%. It also gave an IC50 (curve of compound) greater than 10000 nM.

With O=C(Nc1ccc(O)c(NS(=O)(=O)c2ccc(F)cc2)c1)c1ccc(-c2ccccc2)cc1 the viability, T/C (compound 0.0316 µM) was 105% and 76% and 99.6%, the viability, T/C (compound 0.1 µM) was 95.6% and 92.3% and 104% and the viability, T/C (compound 0.316 µM) was 105% and 88.3% and 87.2%. The viability, T/C (compound 1 µM) was 99.5% and 85.9% and 100%, the viability, T/C (compound 3.16 µM) was 87.3% and 85.3% and 95.2% and the viability, T/C (compound 10 µM) was 74.3% (2×) and 75.3%. For the same compound, the IC50 (curve of compound) was greater than 10000 nM.

With COc1cccc2c1C(=O)c1c(O)c3c(c(O)c1C2=O)CC(O)(C(=O)CO)CC3OC1CC(N)C(O)C(C)O1 (centres undefined) the viability, T/C (compound 0.0316 µM) was 82.8% and 77.3% and 86.3%, the viability, T/C (compound 0.1 µM) was 70.2% and 71% and 79.7% and the viability, T/C (compound 0.316 µM) was 44.3% and 47.8% and 56.8%. For the same compound, the viability, T/C (compound 1 µM) was 12.3% and 15.1% and 18.4%, the viability, T/C (compound 3.16 µM) was 4.78% and 2.95% and 3.66% and the viability, T/C (compound 10 µM) was 3.94% and 2.18% and 3.96%. The IC50 (curve of compound) was 237 nM and 282 nM and 385 nM.

CCCS(=O)(=O)Nc1ccc(F)c(C(=O)c2c[nH]c3ncc(-c4ccc(Cl)cc4)cc23)c1F + Nc1ccc(C#CCN(C(=O)Cc2ncc(C(F)(F)F)cc2C(F)(F)F)c2ccc(F)cc2)nn1 was tested, and the IC50 (curve of first compound, second compound 0.0316 µM) was greater than 10000 nM, the IC50 (curve of first compound, second compound 0.1 µM) was greater than 10000 nM and the IC50 (curve of first compound, second compound 0.316 µM) was greater than 10000 nM. For the same compound, the IC50 (curve of first compound, second compound 1 µM) was greater than 10000 nM, the IC50 (curve of first compound, second compound 3.16 µM) was greater than 10000 nM and the IC50 (curve of first compound, second compound 10 µM) was greater than 10000 nM. For the same compound, the viability, T/C (second compound 0.0316 µM, first compound 0.0316 µM) was 86%, the viability, T/C (second compound 0.0316 µM, first compound 0.1 µM) was 92.7% and the viability, T/C (second compound 0.0316 µM, first compound 0.316 µM) was 98.9%. For the same compound, the viability, T/C (second compound 0.0316 µM, first compound 1 µM) was 77.9%, the viability, T/C (second compound 0.0316 µM, first compound 3.16 µM) was 77.5% and the viability, T/C (second compound 0.0316 µM, first compound 10 µM) was 86.7%. For the same compound, the viability, T/C (second compound 0.1 µM, first compound 0.0316 µM) was 82%, the viability, T/C (second compound 0.1 µM, first compound 0.1 µM) was 91.8% and the viability, T/C (second compound 0.1 µM, first compound 0.316 µM) was 82.8%. For the same compound, the viability, T/C (second compound 0.1 µM, first compound 1 µM) was 82.3%, the viability, T/C (second compound 0.1 µM, first compound 3.16 µM) was 78.1% and the viability, T/C (second compound 0.1 µM, first compound 10 µM) was 57.4%. The viability, T/C (second compound 0.316 µM, first compound 0.0316 µM) was 85.8%, the viability, T/C (second compound 0.316 µM, first compound 0.1 µM) was 92.8% and the viability, T/C (second compound 0.316 µM, first compound 0.316 µM) was 88.9%. For the same compound, the viability, T/C (second compound 0.316 µM, first compound 1 µM) was 87.4%, the viability, T/C (second compound 0.316 µM, first compound 3.16 µM) was 77.5% and the viability, T/C (second compound 0.316 µM, first compound 10 µM) was 82%. The viability, T/C (second compound 1 µM, first compound 0.0316 µM) was 93.5%, the viability, T/C (second compound 1 µM, first compound 0.1 µM) was 91.8% and the viability, T/C (second compound 1 µM, first compound 0.316 µM) was 71%. It also gave a viability, T/C (second compound 1 µM, first compound 1 µM) of 85.5%, a viability, T/C (second compound 1 µM, first compound 3.16 µM) of 77.2% and a viability, T/C (second compound 1 µM, first compound 10 µM) of 76.2%. The viability, T/C (second compound 3.16 µM, first compound 0.0316 µM) was 86.4%, the viability, T/C (second compound 3.16 µM, first compound 0.1 µM) was 105% and the viability, T/C (second compound 3.16 µM, first compound 0.316 µM) was 95.2%. The viability, T/C (second compound 3.16 µM, first compound 1 µM) was 78%, the viability, T/C (second compound 3.16 µM, first compound 3.16 µM) was 62.7% and the viability, T/C (second compound 3.16 µM, first compound 10 µM) was 63.4%. It also gave a viability, T/C (second compound 10 µM, first compound 0.0316 µM) of 93.3%, a viability, T/C (second compound 10 µM, first compound 0.1 µM) of 79.9% and a viability, T/C (second compound 10 µM, first compound 0.316 µM) of 79.7%. The viability, T/C (second compound 10 µM, first compound 1 µM) was 82.3%, the viability, T/C (second compound 10 µM, first compound 3.16 µM) was 74% and the viability, T/C (second compound 10 µM, first compound 10 µM) was 75.4%.
